# Test results published in patent publication US20250160275A1, “COMPOUNDS FOR MODIFYING MEIOTIC RECOMBINATION AND METHODS RELATING THERETO” (The University of North Carolina at Chapel Hill, priority 2022, published 2025).
# Legend:
# [1] = system: flowering Arabidopsis thaliana plants; assay: visual fluorescent pollen transgene assay, crossover frequency in interval I5d (chromosome 5); assay type: in vivo; conditions: 10% DMSO and 0.01% Silwet; for genetic map distance: p-value 0.000
# Experimental: An aqueous solution of 3-aminobutanoic acid was applied to flowering Arabidopsis thaliana plants to enhance the frequency of meiotic recombination (crossovers). Silwet, a spraying adjuvant, was added to the 3-aminobutanoic acid solution at a volume/volume concentration of 0.01%. The solution was applied to the plants by foliar spraying until the plants were drenched. Several concentrations of 3-aminobutanoic acid were used including 0.1, 1, 7.5, 10, 12.5 and 15 mM. As a control, other plants (i.e., control plants) were treated with an aqueous 0.01% solution of Silwet by foliar spraying the solution on the plants until the plants were drenched.
# (§1) Crossover frequencies were measured in pollen from treated and control plants using a visual fluorescent pollen transgene assay as described in Francis et al., Proc Natl Acad Sci USA. 2007; 104 (10): 3913-3918. In this assay pollen tetrads are scored as Parental Ditype (PD), Nonparental Ditype (NPD) or Tetratype (TT) and the frequency of those tetrad classes are used to calculate a genetic map distances in centiMorgans (cM) between reporter genes expressing fluorescent proteins. The genetic map distances between a pair of markers on chromosome 5 were compared between control plants and treated plants. The genetic interval between the two markers was designated as I5d. […] In Table 2, each experimental treatment is paired with data from control plants that were treated and scored together and designated with an experiment number in the first column.
# An aqueous solution phenethyl isothiocyanate (IUPAC name: 2-isothiocyanatoethylbenzene) was applied to flowering Arabidopsis thaliana plants to enhance the frequency of meiotic recombination (crossovers). Phenethyl isothiocyanate in an aqueous solution containing 10% DMSO and 0.01% Silwet was applied by foliar spray until the plants were drenched. The phenethyl isothiocyanate was first dissolved in 100% DMSO and then diluted to its final concentration with 0.0.1% Silwet in water. Several concentrations of phenethyl isothiocyanate were used including 7.5, 10, and 12.5 mM. Control plants were treated with an aqueous solution of 10% DMSO and 0.01% Silwet by foliar spraying the solution on the control plants until the control plants were drenched.
# as §1, with “4,” for “2,”
# An aqueous solution BIX-01294 (IUPAC name: N-(1-benzylpiperidin-4-yl)-6,7-dimethoxy-2-(4-methyl-1,4-diazepan-1-yl) quinazolin-4-amine) was applied to flowering Arabidopsis thaliana plants to enhance the frequency of meiotic recombination (crossovers). BIX-01294 in an aqueous solution containing 10% DMSO and 0.01% Silwet was applied by foliar spray until the plants were drenched. The BIX-01294 was first dissolved in 100% DMSO and then diluted to its final concentration with 0.0.1% Silwet in water. Several concentrations of […] were used including 0.5, 1, 2.5 and 5 mM. Control plants were treated with an aqueous solution of 10% DMSO and 0.01% Silwet by foliar spraying the solution on the control plants until the control plants were drenched. […]
# [2] = system: rice (Kitaake x Nipponbare F1 plants); assay: meiotic recombination in rice F1 plants, recombinant reads in sequenced pollen DNA; assay type: in vivo, Oryza sativa subspecies japonica; conditions: 7.5 mM whole-plant spray at panicle stage, 10% DMSO and 0.01% Silwet; pollen harvested after 5-7 days
# From the text: Meiotic recombination was stimulated in rice by external application of phenethyl isothiocyanate (IUPAC name: 2-isothiocyanatoethylbenzene). First, two parental rice lines, “Oryza sativa subspecies japonica variety Kitaake” (“Kitaake” hereafter) and “Oryza sativa subspecies japonica variety Nipponbare” (“Nipponbare” hereafter) were manually crossed to produce F1 seeds. F1 seeds were germinated and grown to produce F1 plants. PCR was used to genotype the F1 plants and confirm their heterozygosity. When F1 plants produced panicles (inflorescences) they were treated by spraying the whole plant, until saturation, with 7.5 mM phenethyl isothiocyanate in an aqueous solution containing 10% DMSO and 0.01% Silwet. The phenethyl isothiocyanate was first dissolved in 100% DMSO and then diluted to its final concentration with 0.0.1% Silwet in water. Control plants were mock-treated with 10% DMSO and 0.01% Silwet. […] Reads that spanned at least two parental SNPs were selected and binned into those that contained SNPs of only the Kitaake type (non-recombinant), only the Nipponbare type (non-recombinant) or both Kitaake and Nipponbare type (recombinant). The frequency of recombinant reads from treated and untreated plants were compared to detect an increase in meiotic recombination resulting from treatment with phenethyl isothiocyanate.
smiles,measurement,setting,value
"S=C=NCCc1ccccc1 [phenethyl isothiocyanate, 2-isothiocyanatoethylbenzene]",NPD (Nonparental Ditype pollen tetrads),"[1]; 7.5 mM foliar spray, Exp.(2)",2
same,PD (Parental Ditype pollen tetrads),"[1]; 7.5 mM foliar spray, Exp.(2)",978
same,TT (Tetratype pollen tetrads),"[1]; 7.5 mM foliar spray, Exp.(2)",211
same,genetic map distance,"[1]; 7.5 mM foliar spray, Exp.(2), DMSO control 5.90 cM",9.36 cM
same,NPD (Nonparental Ditype pollen tetrads),"[1]; 10 mM foliar spray, Exp.(1)",0
same,PD (Parental Ditype pollen tetrads),"[1]; 10 mM foliar spray, Exp.(1)",1840
same,TT (Tetratype pollen tetrads),"[1]; 10 mM foliar spray, Exp.(1)",370
same,genetic map distance,"[1]; 10 mM foliar spray, Exp.(1), DMSO control 5.77 cM",8.37 cM
same,NPD (Nonparental Ditype pollen tetrads),"[1]; 12.5 mM foliar spray, Exp.(2)",0
same,PD (Parental Ditype pollen tetrads),"[1]; 12.5 mM foliar spray, Exp.(2)",868
same,TT (Tetratype pollen tetrads),"[1]; 12.5 mM foliar spray, Exp.(2)",200
same,genetic map distance,"[1]; 12.5 mM foliar spray, Exp.(2), DMSO control 5.90 cM",9.36 cM
same,meiotic recombination in treated plants compared to controls,"[1]; all concentrations (7.5, 10, 12.5 mM)",increase meiotic recombination
same,meiotic recombination in rice,[2],stimulated
